Reference: patent US20130244255A1, “ANTIBODIES DIRECTED TO GPNMB AND USES THEREOF” (priority 2006, published 2013)
Entries after “also recorded” stand apart in the source; their conditions may differ. Where a name gives a salt, the structure may show the parent alone. Where a SMILES comes first, the peptide text is derived from it. [ ]: non-standard residue; d: D form. The star is where a group is joined. Dolaproine = CO[C@@H]([C@@H]1CCCN1)[C@@H](C)C(=O)O; Dil = CC[C@H](C)[C@H](NC)[C@@H](CC(=O)O)OC; X1 = C[C@@H](N*)[C@@H](O)c1ccccc1; NMeV = CN[C@H](C(=O)O)C(C)C

How the values were obtained:
UACC-62 = assay: Anti-GPNMB antibody mediated indirect cell killing (saporin secondary conjugate, colony count); type: cell-based, human; details: 5-FU 600 uM; antibodies with saporin toxin-conjugated secondary antibody
Protocol: UACC-62, a GPNMB antigen expressing cell line, and TK10, a non-expressing cell line were plated onto flat bottom 96-well tissue culture plates (Becton Dickinson, Franklin Lakes, N.J., USA) at a density of 3000 cells per well. Once the cells reached ˜25% confluency, 100 ng/well of secondary antibody-toxin conjugate (goat anti-human IgG-saporin; Advanced Targeting Systems, San Diego, USA, HUM-ZAP; cat #IT-22) was added. Anti-GPNMB MAbs 2.10.2, 2.22.1, 1.15.1 or isotype control mAb (pK16.3) were added to each well at a final concentration of 10 or 50 μg/mL. An anti-EGFR monoclonal antibody (MS-269-PABX, NeoMarkers, Fremont, Calif., USA) was used as a positive primary antibody control. Chemotherapy reagent 5-FU at 600 uM was used as a positive reagent control. On day 5, the cells were trypsinized, transferred to 6-well tissue culture plates and incubated at 37° C. Plates were examined daily and between 8-10 days, all plates were Giemsa stained and colonies were counted.

[1] = tested on: SK-MEL-2 human melanoma xenograft; assay: SK-MEL-2 human melanoma xenograft in athymic mice; type: in vivo
Protocol: Five- to 6-week old athymic mice (CD-1 nu/nu females), used for human tumor xenografts, were obtained from Harlan Laboratories (Indianapolis, Ind.). Animals were housed in specific pathogen-free conditions, according to the guidelines of the Association for Assessment and Accreditation of Laboratory Animal Care International (AAALAC International). Test animals were provided pelleted food and water ad libitum and kept in a room with conditioned ventilation (HVAC), temperature (22°±2° C.), relative humidity (55%±15%), and photoperiod (12 hr). All studies were carried out with approved institutional animal care and use protocols.
(§1) The tumor inhibitory activity of the CR011-MMAE immunoconjugate was measured in an anti-tumor xenograft model using athymic mice, according to published methods (see Geran et al., Cancer Chemother. Rep. 3:1-104 (1972)). […] When tumors became established (10-20 days), the animals were pair-matched into groups (n=6 mice/group), and treatment was administered by intravenous injection (tail vein).
(§2) The SK-MEL-2 human melanoma (ATCC #HTB-68) was derived from a metastatic site (skin of thigh) of a person with malignant melanoma, and the SK− MEL-5 human melanoma (ATCC #HTB-70) was derived from a metastatic site (axillary lymph node) of a person with malignant melanoma (see Fogh et al., J. Natl. Cancer Inst. 59: 221-226 (1977)). Both cell lines were obtained from the American Type Culture Collection.
(§3) The effects of treatment were monitored by repetitive tumor measurements across 2 diameters with Vernier calipers; tumor size (in mg) was calculated using a standard formula, (W^2×L)/2, assuming a specific gravity of 1.0. Tumor size and body weights were assessed twice weekly. Mice were examined daily, however, and moribund animals were humanely euthanized if clinical indications of excessive pain or distress were noted (i.e., prostration, hunched posture, paralysis/paresis, distended abdomen, ulcerations, abscesses, seizures, and/or hemorrhages) Animals with tumors exceeding 2,000 mg were removed from the study and euthanized humanely.
No apparent or statistically significant anti-tumor effects were observed. […] In preliminary studies, tumor regression was complete and was not followed by regrowth of the tumor despite lengthy observation periods (up to 200 days).

[2] = tested on: SK-MEL-5 human melanoma xenograft; assay: SK-MEL-5 human melanoma xenograft in athymic mice; type: in vivo
Protocol: as §1, §2, §3
Soon after the commencement of treatment with paclitaxel, however, significant tumor growth inhibition was observed (P≦0.039) at day 3 after treatment began, and this anti-tumor effect continued, producing 100% growth inhibition (stasis). The responses of SK-MEL-5-bearing test animals to vinblastine and paclitaxel were short-lived. After cessation of treatment at the maximally tolerated doses, tumors resumed rapid, progressive growth.

CG56972/GPNMB = target: T1, CG56972/GPNMB (Homo sapiens, UniProt Q14956); assay: FACS binding of CR011 IgG1 and IgG2 on SK-MEL-2 cells
T1 construct: endogenous in cells; host or cells: UACC-62 and a panel of melanoma lines (A5); SK-MEL-2 (A52); SK-Mel-5 (A63)
T1 sequence (Q14956 23-572): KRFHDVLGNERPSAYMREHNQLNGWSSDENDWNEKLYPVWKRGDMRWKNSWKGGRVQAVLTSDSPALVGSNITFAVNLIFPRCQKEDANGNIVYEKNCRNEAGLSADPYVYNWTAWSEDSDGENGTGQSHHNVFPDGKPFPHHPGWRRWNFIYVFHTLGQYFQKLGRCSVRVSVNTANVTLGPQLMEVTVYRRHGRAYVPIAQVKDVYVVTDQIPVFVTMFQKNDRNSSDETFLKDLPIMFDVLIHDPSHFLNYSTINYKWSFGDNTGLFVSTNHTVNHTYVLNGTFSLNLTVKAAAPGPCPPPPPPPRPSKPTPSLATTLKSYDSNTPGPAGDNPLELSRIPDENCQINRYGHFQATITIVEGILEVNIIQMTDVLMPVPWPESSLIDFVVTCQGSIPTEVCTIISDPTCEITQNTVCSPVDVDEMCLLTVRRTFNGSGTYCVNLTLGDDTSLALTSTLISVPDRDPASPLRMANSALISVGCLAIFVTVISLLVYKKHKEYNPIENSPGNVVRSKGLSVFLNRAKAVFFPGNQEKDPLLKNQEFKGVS

SK-Mel-2 cells = assay: ADCC assay with human PBMC (DELFIA EuTDA cytotoxicity); type: cell-based; details: 30 to 100 fold PBMC; 2, 5, 10 μg/200 μl mAb
Protocol: Human PBMC were isolated from whole blood using a Ficoll-Plaque. Briefly, in a 50 mL tube, 15 mL of PBS was added to 20 mL of whole blood which was underlayed with 10 mL Ficoll-Plaque and the tube was centrifuged at 2000 RPM. Mononuclear cells were collected from the interface and washed 3 times with PBS. The ADCC assay was carried out in a 96 well plate using a fluorescence assay for cytolysis from Perkin-Elmer (DELFIAEuTDA Cytotoxic assay). The procedure is based on loading target cells with a fluorescence enhancing ligand (BATDA, bis (acetoxymethyl) terpyridine—dicarboxylate). The hydrophic ligand penetrates the membrane quickly. Within the cell the esterbonds are hydrolyzed to form a hydrophilic ligand (TDA, terpyridine—dicarboxylic acid) which can no longer pass through the membrane. After cytolysis the ligand is released and introduced to the Europium solution. The europium and the ligand form a highly fluorescent and stable chelate (EuTDA). Fluorescence intensity are recorded using excitation and emission wavelengths as λex=340 nm and λem=613 nm, respectively.

Q: For `O=c1[nH]cc(F)c(=O)[nH]1` [Mab 5-FU], which “effect on UACC-62 cells (in words)” value (UACC-62) is on record?
A: complete killing

Q: With `CC[C@]1(O)C[C@@H]2CN(CCc3c([nH]c4ccccc34)[C@@](C(=O)OC)(c3cc4c(cc3OC)N(C)[C@H]3[C@@](O)(C(=O)OC)[C@H](OC(C)=O)[C@]5(CC)C=CCN6CC[C@]43[C@@H]65)C2)C1` [Vinblastine, vinblastine sulfate, reference compound] as the molecule, how does the “anti-tumor effect (in words)” value ([1]; i.v., CR011-vcMMAE 20, 10, 5 or 2.5 mg/kg q4d×4, vinblastine […] q4d×4) read?
A: very slight, but not significant, anti-tumor effect

Q: What about the “anti-tumor effect (in words)” value ([2]; i.v., CR011-vcMMAE 1.25 to 20 mg/kg q4d×4, vinblastine […] q4d×4) of the same molecule?
A: noticeable, but not significant tumor growth inhibition

Q: How did the “FACS shift on SK-MEL-2 cells vs isotype control mAbs” value (CG56972/GPNMB) turn out when “CR011 IgG1 mAb: CR011 mAb 1.15.1 switched to IgG1 constant region; heavy chain SEQ ID NO: 395” was run?
A: comparable FACS shifts

Q: What about the “cytolysis of SK-MEL-2 cells (ADCC)” value (SK-Mel-2 cells) of the same molecule?
A: caused cytolysis of SK-MEL-2 cells in a dose dependent manner

Q: `CC[C@H](C)[C@@H]([C@@H](CC(=O)N1CCC[C@H]1[C@H](OC)[C@@H](C)C(=O)N[C@H](C)[C@@H](O)c1ccccc1)OC)N(C)C(=O)[C@@H](NC(=O)[C@@H](NC)C(C)C)C(C)C` [monomethylauristatin E, reference compound] (H-[NMeV]V[Dil][Dolaproine]-X1) was tested. Which “tumor growth inhibition by components of the immunoconjugate (in words)” value ([1]; doses identical to that contained in the intact immunoconjugate (5 mg/kg q4d×4)) did it give?
A: lack of responses; also recorded: lack of tumor growth inhibition

Q: Which “growth inhibition (tumor stasis)” value ([1]; paclitaxel i.v. 24 mg/kg q2d×4, for approximately 2 weeks after treatment commenced) does the source give for `CC(=O)O[C@H]1C(=O)[C@@]2(C)[C@H]([C@H](OC(=O)c3ccccc3)[C@]3(O)C[C@H](OC(=O)[C@H](O)[C@@H](NC(=O)c4ccccc4)c4ccccc4)C(C)=C1C3(C)C)[C@]1(OC(C)=O)CO[C@@H]1C[C@@H]2O` [Paclitaxel, paclitaxel, reference compound] here?
A: 100%

Q: And the “growth inhibition (stasis)” value ([2]; paclitaxel 24 mg/kg i.v. q2d×4)?
A: 100%

Q: And the “long-term, tumor-free survivor” value ([2]; paclitaxel group)?
A: One
